# Results: US10214546B2, “Btk inhibitors” (MERCK SHARP & DOHME CORP., priority 2014, dated 2019)
# Where two headings read alike, the source gives them in different places.
# Key:
# [1] = test system: adenosine uptake into HeLa cells; assay: [3H]Adenosine uptake assay in HeLa cells; format: cell-based; conditions: compound range 10 μM to 0.032 nM
# How it was run: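 HeLa cells in HBSS + 5% FBS were preincubated 30 min at ambient temperature with compound (ten-point 1:3 series, 10 µM–[…] final), then given [3H]adenosine (added as a 500 nM solution) for 60 min. Cell-associated label was read by scintillating-plate proximity counting; IC50 from 4-parameter fit of cps versus log concentration.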
# [2] = target: BTK enzyme (recombinant full-length BTK, hBTK) (Homo sapiens (Human), UniProt Q06187); assay: BTK enzymatic activity LANCE TR-FRET assay; format: biochemical; conditions: 50 pM hBTK, 25 μM ATP, 2 μM biotin-A5-peptide; compound range 1 μM to 0.017 nM; read-out: BTK binding IC50
# [3] = Homo sapiens, HeLa, [3H]adenosine accumulation in HeLa cells, read-out: ADU inhibition IC50
# [4] = [3H]adenosine accumulation in HeLa cells, read-out: ADU inhibition IC50
# BTK enzyme (recombinant full-length BTK, hBTK), sequence (Q06187 whole entry): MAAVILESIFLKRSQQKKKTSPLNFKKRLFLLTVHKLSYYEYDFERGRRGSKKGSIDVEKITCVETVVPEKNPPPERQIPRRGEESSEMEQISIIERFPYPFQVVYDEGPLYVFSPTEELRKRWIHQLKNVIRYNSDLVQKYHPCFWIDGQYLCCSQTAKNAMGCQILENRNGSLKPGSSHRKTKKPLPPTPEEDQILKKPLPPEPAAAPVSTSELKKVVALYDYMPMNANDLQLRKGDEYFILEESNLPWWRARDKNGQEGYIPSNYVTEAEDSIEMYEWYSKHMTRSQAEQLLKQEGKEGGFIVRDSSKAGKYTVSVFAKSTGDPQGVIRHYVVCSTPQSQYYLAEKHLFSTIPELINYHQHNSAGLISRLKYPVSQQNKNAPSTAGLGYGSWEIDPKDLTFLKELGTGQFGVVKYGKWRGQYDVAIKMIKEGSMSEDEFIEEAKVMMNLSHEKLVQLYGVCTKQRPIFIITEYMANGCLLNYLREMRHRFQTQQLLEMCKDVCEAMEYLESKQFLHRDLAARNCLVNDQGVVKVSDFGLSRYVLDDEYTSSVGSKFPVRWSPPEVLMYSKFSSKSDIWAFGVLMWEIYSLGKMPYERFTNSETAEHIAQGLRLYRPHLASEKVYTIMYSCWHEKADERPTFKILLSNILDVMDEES
"IC50 [1, 3]",IC50 [2],"IC50 [1, 4]",SMILES,"IC50 ([1]; Homo sapiens, HeLa, read-out: ADU inhibition IC50 (nM), [3H]adenosine accumulation in HeLa cells)","IC50 ([1]; read-out: ADU inhibition IC50, [3H]adenosine accumulation in HeLa cells)"
2010 nM,0.21 nM,,"CC(C)c1cccc([C@](C)(O)c2ccc(-c3nc([C@@H]4CC[C@H]5CCC(=O)N5C4)n4ccnc(N)c34)cc2)c1 [Example 75, (6R,8aS)-6-[8-amino-1-(4-{(1R)-1-hydroxy-1-[3(1-methylethyl)phenyl]ethyl}phenyl)imidazo[1,5-a]pyrazin-3-yl]hexahydroindolizin-3(2H)-one]",,
1040 nM,24.2 nM,,"C[C@](O)(c1ccc(-c2nc([C@@H]3CC[C@H]4CCC(=O)N4C3)n3ccnc(N)c23)cc1)c1cccc(CC(F)(F)F)c1 [Example 77, (6R,8aS)-6-[8-amino-1-(4-{(1S)-1-hydroxy-1-[3-(2,2,2-trifluoroethyl)phenyl]ethyl}phenyl)imidazo[1,5-a]pyrazin-3-yl]hexahydroindolizin-3(2H)-one]",,
2850 nM,0.17 nM,,"C[C@@](O)(c1ccc(-c2nc([C@@H]3CC[C@H]4CCC(=O)N4C3)n3ccnc(N)c23)cc1)c1cccc(CC(F)(F)F)c1 [Example 78, (6R,8aS)-6-[8-amino-1-(4-{(1R)-1-hydroxy-1-[3-(2,2,2-trifluoroethyl)phenyl]ethyl}phenyl)imidazo[1,5-a]pyrazin-3-yl]hexahydroindolizin-3(2H)-one]",,
746 nM,4.7 nM,,"C[C@](O)(c1ccc(-c2nc([C@@H]3CC[C@H]4CCC(=O)N4C3)n3ccnc(N)c23)cc1)c1cccc(C2CCC2)c1 [Example 82, (6R,8aS)-6-(8-amino-1-{4-[(1S)-1-(3-cyclobutylphenyl)-1-hydroxyethyl]phenyl]imidazo[1,5-a]pyrazin-3-yl)hexahydroindolizin-3(2H)-one]",,
1330 nM,0.12 nM,,"C[C@@](O)(c1ccc(-c2nc([C@@H]3CC[C@H]4CCC(=O)N4C3)n3ccnc(N)c23)cc1)c1cccc(C2CCC2)c1 [Example 83, (6R,8aS)-6-(8-amino-1-{4-[(1R)-1-(3-cyclobutylphenyl)-1-hydroxyethyl]phenyl}imidazo[1,5-a]pyrazin-3-yl)hexahydroindolizin-3(2H)-one]",,
2380 nM,1000 nM,,"C[C@](O)(c1ccc(-c2nc([C@@H]3CC[C@H]4CCC(=O)N4C3)n3ccnc(N)c23)cc1)c1cccc(C#N)c1 [Example 84, 3-[(1S)-1-(4-{8-amino-3-[(6R,8aS)-3-oxooctahydroindolizin-6-yl]imidazo[1,5-a]pyrazin-1-yl}phenyl)-1-hydroxyethyl]benzonitrile]",,
3530 nM,23.4 nM,,"C[C@@](O)(c1ccc(-c2nc([C@@H]3CC[C@H]4CCC(=O)N4C3)n3ccnc(N)c23)cc1)c1cccc(C#N)c1 [Example 85, 3-[(1R)-1-(4-{8-amino-3-[(6R,8aS)-3-oxooctahydroindolizin-6-yl]imidazo[1,5-a]pyrazin-1-yl}phenyl)-1-hydroxyethyl]benzonitrile]",,
1100 nM,576 nM,,"CC(O)(c1cccc(C(F)(F)F)c1)c1ccc(-c2nc([C@@H]3CC[C@H]4CCC(=O)N4C3)n3ccnc(N)c23)c(C2CC2)c1 (stereo partly drawn) [Example 88, (6R,8aS)-6-[8-amino-1-(2-cyclopropyl-4-{1-hydroxy-1-[3-(trifluoromethyl)phenyl]ethyl}phenyl)imidazo [1,5-a]pyrazin-3-yl]hexahydroindolizin-3(2H)-one]",,
619 nM,0.48 nM,,"CCc1cccc([C@@](C)(O)c2ccc(-c3nc([C@@H]4CC[C@H]5CCC(=O)N5C4)n4ccnc(N)c34)cc2)c1 [Example 92, (6R,8aS)-6-(8-amino-1-{4-[(1S)-1-(3-ethylphenyl)-1-hydroxyethyl]phenyl}imidazo[1,5-a]pyrazin-3-yl)hexahydroindolizin-3(2H)-one]",,
1380 nM,0.15 nM,,"CCc1cccc([C@](C)(O)c2ccc(-c3nc([C@@H]4CC[C@H]5CCC(=O)N5C4)n4ccnc(N)c34)cc2)c1 [Example 93, (6R,8aS)-6-(8-amino-1-(4-[(1R)-1-(3-ethylphenyl)-1-hydroxyethyl]phenyl}imidazo[1,5-a]pyrazin-3-yl)hexahydroindolizin-3(2H)-one]",,
800 nM,201 nM,,"C[C@](O)(c1ccc(-c2nc([C@@H]3CC[C@H]4CCC(=O)N4C3)n3ccnc(N)c23)cc1)c1cccc(OC2CC2)c1 [Example 94, (6R,8aS)-6-[8-amino-1-(4-{(1S)-1-[3-(cyclopropyloxy)phenyl]-1-hydroxyethyl}phenyl)imidazo[1,5-a]pyrazin-3-yl]hexahydroindolizin-3(2H)-one]",,
1980 nM,1.8 nM,,"C[C@@](O)(c1ccc(-c2nc([C@@H]3CC[C@H]4CCC(=O)N4C3)n3ccnc(N)c23)cc1)c1cccc(OC2CC2)c1 [Example 95, (6R,8aS)-6-[8-amino-1-(4-{(1R)-1-[3-(cyclopropyloxy)phenyl]-1-hydroxyethyl}phenyl)imidazo[1,5-a]pyrazin-3-yl]hexahydroindolizin-3(2H)-one]",,
3170 nM,0.28 nM,,"COc1cc(-c2nc([C@@H]3CC[C@H]4CCC(=O)N4C3)n3ccnc(N)c23)ccc1[C@](C)(O)c1cccc(C2CC2)c1 [Example 98, (6R,8aS)-6-(8-amino-1-{4-[(1R)-1-(3-cyclopropylphenyl)-1-hydroxyethyl]-3-methoxyphenyl}imidazo [1,5-a]pyrazin-3-yl)hexahydroindolizin-3(2H)-one]",,

# Further lines, the molecule ahead of its results:
SMILES,"IC50 [1, 3]",IC50 [2],"IC50 [1, 4]","IC50 ([1]; Homo sapiens, HeLa, read-out: ADU inhibition IC50 (nM), [3H]adenosine accumulation in HeLa cells)","IC50 ([1]; read-out: ADU inhibition IC50, [3H]adenosine accumulation in HeLa cells)"
"CC(C)C(O)(c1ccc(-c2nc([C@@H]3CC[C@H]4CCC(=O)N4C3)n3ccnc(N)c23)cc1)c1cccc(C(F)(F)F)c1 (stereo partly drawn) [Example 76, (6R,8aS)-6-[8-amino-1-(4-{1-hydroxy-2-methyl-1-[3-(trifluoromethyl)phenyl]propyl}phenyl)imidazo [1,5-a]pyrazin-3-yl]hexahydroindolizin-3(2H)-one]",2100 nM,1000 nM,,,
"CC(C)C(O)(c1ccc(-c2nc([C@@H]3CC[C@H]4CCC(=O)N4C3)n3ccnc(N)c23)cc1)c1cccc(C(F)(F)F)c1 (stereo partly drawn) [Example 79, (6R,8aS)-6-[8-amino-1-(4-{1-hydroxy-2-methyl-1-[3-(trifluoromethyl)phenyl]propyl}phenyl)imidazo [1,5-a]pyrazin-3-yl]hexahydroindolizin-3(2H)-one]",,204 nM,1470 nM,,
"C[C@@](O)(c1cccc(C(F)(F)F)c1)c1ccc(-c2nc([C@@H]3CC[C@H]4CCC(=O)N4C3)n3ccnc(N)c23)c(C(F)F)c1 [Example 80, (6R,8aS)-6-{8-amino-1-[2-(difluoromethyl)-4-{(1S)-1-hydroxy-1-[3-(trifluoromethyl)phenyl]ethyl}phenyl]imidazo [1,5-a]pyrazin-3-yl}-hexahydroindolizin-3(2H)-one]",1730 nM,808 nM,,,
"C[C@](O)(c1cccc(C(F)(F)F)c1)c1ccc(-c2nc([C@@H]3CC[C@H]4CCC(=O)N4C3)n3ccnc(N)c23)c(C(F)F)c1 [Example 81, (6R,8aS)-6-{8-amino-1-[2-(difluoromethyl)-4-{(1R)-1-hydroxy-1-[3-(trifluoromethyl)phenyl]ethyl}phenyl]imidazo [1,5-a]pyrazin-3-yl}hexahydroindolizin-3(2H)-one]",684 nM,1000 nM,,,
"Nc1nccn2c([C@@H]3CC[C@H]4CCC(=O)N4C3)nc(-c3ccc(C(O)(c4cccc(C(F)(F)F)c4)C4CC4)cc3)c12 (stereo partly drawn) [Example 86, (6R,8aS)-6-[8-amino-1-(4-{cyclopropyl(hydroxy)[3-(trifluoromethyl)phenyl]methyl}phenyl)imidazo [1,5-a]pyrazin-3-yl]hexahydroindolizin-3(2H)-one]",,1000 nM,589 nM,,
"Nc1nccn2c([C@@H]3CC[C@H]4CCC(=O)N4C3)nc(-c3ccc(C(O)(c4cccc(C(F)(F)F)c4)C4CC4)cc3)c12 (stereo partly drawn) [Example 87, (6R,8aS)-6-[8-amino-1-(4-{cyclopropyl(hydroxy)[3-(trifluoromethyl)phenyl]methyl}phenyl)imidazo [1,5-a]pyrazin-3-yl]hexahydroindolizin-3(2H)-one]",,123 nM,1580 nM,,
"CO[C@](C)(c1ccc(-c2nc([C@@H]3CC[C@H]4CCC(=O)N4C3)n3ccnc(N)c23)cc1)c1cccc(C(F)(F)F)c1 [Example 89, (6R,8aS)-6-[8-amino-1-(4-{(1R)-1-methoxy-1-[3-(trifluoromethyl)phenyl]ethyl}phenyl)imidazo [1,5-a]pyrazin-3-yl]hexahydroindolizin-3(2H)-one]",3490 nM,1000 nM,,,
"CO[C@@](C)(c1ccc(-c2nc([C@@H]3CC[C@H]4CCC(=O)N4C3)n3ccnc(N)c23)cc1)c1cccc(C(F)(F)F)c1 [Example 90, (6R,8aS)-6-[8-amino-1-(4-{(1S)-1-methoxy-1-[3-(trifluoromethyl)phenyl]ethyl}phenyl)imidazo [1,5-a]pyrazin-3-yl]hexahydroindolizin-3(2H)-one]",969 nM,1000 nM,,,
"NC(=O)C(O)(c1ccc(-c2nc([C@@H]3CC[C@H]4CCC(=O)N4C3)n3ccnc(N)c23)cc1)c1cccc(C(F)(F)F)c1 (stereo partly drawn) [Example 96, 2-(4-{8-amino-3-[(6R,8aS)-3-oxooctahydroindolizin-6-yl]imidazo[1,5-a]pyrazin-1-yl}phenyl)-2-hydroxy-2-[3-(trifluoromethyl)phenyl] acetamide]",,576 nM,,7140 nM,
"NC(=O)C(O)(c1ccc(-c2nc([C@@H]3CC[C@H]4CCC(=O)N4C3)n3ccnc(N)c23)cc1)c1cccc(C(F)(F)F)c1 (stereo partly drawn) [Example 97, 2-(4-{8-amino-3-[(6R,8aS)-3-oxooctahydroindolizin-6-yl]imidazo[1,5-a]pyrazin-1-yl}phenyl)-2-hydroxy-2-[3-(trifluoromethyl)phenyl] acetamide]",,894 nM,,,10000 nM
